The test system of this test is Plasmodium falciparum. The experiment in a line: MMV: Compounds (1uM) were screened in a 72hr growth assay monitored by flow cytometry both in the presence and absence of supplemental isopentenyl pyrophosphate (IPP) 200uM. Compounds which fail to show anti-malarial activity when chemically rescued by IPP are therefore specific to the apicoplast. The values are expressed as the ratio of the corresponding activity with and without IPP, respectively. The test is classed as functional, W2. (Flow cytometry measures light scatter and fluorescence of single cells or particles in a stream.)
Turning to `c1ccc(/C2=N/c3ccccc3/N=C(/c3ccccc3)c3ccccc32)cc1`, the Ratio was found to be 0.807. Take `CCN(CC)CCn1c(=N)n(CC(O)c2ccc(Cl)c(Cl)c2)c2ccccc21.Cl` (configuration not stated): the Ratio stood at 0.9508. Consider `CCOC(=O)c1cnc2ccc(OC)cc2c1Nc1ccc(N2CCN(C)CC2)cc1`, for which the Ratio is given as 0.9667.

On to `COc1ccc(-c2c(C)nn3c(N)c(C#N)cnc23)cc1OC`, for which the Ratio was 0.831. For the compound `Cc1cccc(N2C(=O)C3C(C2=O)C2(c4ccccc4)C(=O)C3(c3ccccc3)C(c3ccc4c(c3)OCO4)=C2c2ccc3c(c2)OCO3)c1` (configuration not stated), the Ratio is 0.9857. Consider `CC(NCc1ccccc1)c1cc(Cl)ccc1O` (configuration not stated), for which the Ratio stood at 0.6957. In the case of `COc1ccc2c(c1)C1(Nc3ccccc3-c3nc4ccccc4n31)C(=O)N2` (configuration not stated), the Ratio is on record as 0.9667. In the case of `CCC1(C)CC(CCNCc2ccccc2O)(c2ccc(C)cc2)CCO1` (configuration not stated), the Ratio is 0.8378. For `CCCCC(O)(c1ccc(Cl)cc1)C(CN1CCOCC1)c1ccc(Cl)cc1.Cl` (configuration not stated), the Ratio was 1.074. With `COc1ccc(C(=O)NC(c2ccccc2Cl)c2cc(Cl)c3cccnc3c2O)cc1` (configuration not stated), the Ratio is recorded as 1.365. For `CC(C)(C)c1ccc(C(=O)Nc2c3c(nn2-c2cccc(Cl)c2)CSC3)cc1`, the Ratio was 0.9138. The result for `CCOC(=O)c1cn(CC)c2cc(N3CCCCC3)c(F)cc2c1=O` reads 0.6824; that for `Cc1cc(=O)oc2c1ccc1oc(C(=O)c3ccccc3)c(C)c12`, 1.067. In the case of `Cc1cc(C)cc(Nc2cc(C)nc3nc(C(F)(F)F)nn23)c1`, the Ratio came to 0.8519.

On to `Cn1c(=O)c2cc(C(=O)NCCCN3CCCCCC3)sc2c2ccccc21`, for which the Ratio came out at 1.205. Take `Cc1cc(N(C)C)nc(Nc2ccc(NC(=O)Nc3ccccc3)cc2)n1`: the Ratio is given as 1.017. In the case of `Cc1ccc(Cl)cc1N1CCN(CCCNC(=O)C2CCN(c3nc4ccccc4[nH]3)CC2)CC1`, the Ratio turned out to be 0.814. `O=C(CCc1ccccc1)c1ccccc1OCC(O)CN1CCCCC1` (configuration not stated): the Ratio is recorded as 1. Turning to `Cc1cc(N2CCN(C3CCCC3)CC2)n2c(nc3ccccc32)c1C#N`, the Ratio is given as 0.7364. The result for `CN(C)CCCNCc1ccc(-c2ccc(F)c(Cl)c2)o1.Cl` reads 0.75; that for `Nc1ccc(-c2nc3cc(Cc4ccc5[nH]c(-c6ccc(N)cc6)nc5c4)ccc3[nH]2)cc1`, 1.333. Regarding `Cc1cc(C)c2nc(N3CCC(C(=O)NCCCN4CCC(N5CCCCC5)CC4)CC3)sc2c1`, the Ratio is 0.8033.

With `COc1cc(C(=O)ON=C(N)Cc2cccc3ccccc23)cc(OC)c1OC`, the Ratio was determined as 1.265. Consider `O=C(NC(c1ccccc1)c1ccc2cccnc2c1O)c1ccccc1` (configuration not stated), for which the Ratio was 1.018. As to `Clc1ccc2c(N3CCCC3)ccnc2c1`, the Ratio is listed as 0.8475. For `O=C(Nc1ccc(CN2CCOCC2)cc1)c1ccc(-c2cc(Cl)ccc2Cl)o1` the value was 0.9054; for `CCCCCCc1cc2cc(-c3csc(C=Cc4ccccc4)n3)c(=O)oc2cc1O`, 0.86. As for `Cc1ccc2nc(C)cc(Nc3cccc(C(F)(F)F)c3)c2c1.Cl`, the Ratio is given as 0.875. With `COc1ccccc1N1CCN(C(CNS(=O)(=O)c2ccc(Cl)cc2)c2cccnc2)CC1` (configuration not stated), the Ratio is listed as 0.8506. Consider `CCOC(=O)c1cnc2c(C)cccc2c1Nc1ccc(C(C)=O)cc1`, for which the Ratio is recorded as 1.3. With `CC(C)(C)CC(C)(C)NCC(O)COc1ccc2c(c1)CCC2.Cl` (configuration not stated), the Ratio was found to be 1.052.

For the compound `Brc1ccc(Nc2nc3ccccc3nc2Nc2ccc(Br)cc2)cc1`, the Ratio stood at 0.8871.

As for `Cc1cc(Nc2ccc(C)c(Cl)c2)n2nc(C(F)(F)F)nc2n1`, the Ratio is listed as 0.6628. In the case of `CCCCCCOC(=O)C1=C(C)NC(=O)NC1c1ccccc1F` (configuration not stated), the Ratio came to 0.6566. In the case of `Cc1ccc(N2C3c4ccccc4N(S(=O)(=O)c4ccc(C)cc4)C2c2ccccc2N3S(=O)(=O)c2ccc(C)cc2)cc1`, the Ratio amounted to 0.3473. On to `COc1ccc2c(c1OC)C(=O)N1c3ccccc3N=C(c3ccc(C)cc3)CC21` (configuration not stated), for which the Ratio is 1.052. On to `CCCCc1c(CCC)c(=N)c2ccccc2n1C.I`, for which the Ratio is listed as 0.7821.

Take `CCOc1ccc(C2N(C)c3ccccc3N2C)cc1`: the Ratio is on record as 0.8372. For `O=C(NCC(c1ccsc1)N1CCCCCC1)c1ccc(C(F)(F)F)cc1` (configuration not stated), the Ratio worked out at 0.9077. For `CN(C)c1ccc(N2C(N)=NC(N)=NC2(C)C)cc1` the value was 0.7632.

`c1ccc(-c2ccc(-c3nc4ccccc4[nH]3)cc2)cc1`: the Ratio was 1.5. `COC(=O)c1ccc(Cl)c2c1C1C=CCC1C(c1cccc3ccccc13)N2` (configuration not stated): the Ratio worked out at 1.081. On to `O=C(Nc1ccc(CN2CCOCC2)cc1)c1ccc(-c2ccc(Br)cc2)o1`, for which the Ratio worked out at 0.6519. `COc1ccc(Nc2nc(N/N=C/c3ccc(O)cc3)nc(Nc3ccc([N+](=O)[O-])cc3)n2)cc1`: the Ratio is recorded as 1.812.

With `CCOc1ccc(/C=C/c2nc(=O)c3ccccc3o2)cc1`, the Ratio is reported as 0.7714. As for `OC(CNC1CCCCC1)Cn1c2ccccc2c2ccccc21` (configuration not stated), the Ratio was determined as 1.115. With `CC1CC2=C(CC1CNCCCN(C)C)C(C)(C)CCC2` (configuration not stated), the Ratio is reported as 0.931.

On to `Cc1cc(Nc2cccc(F)c2)nc(NCc2ccccc2)n1`, for which the Ratio turned out to be 0.8333. For `O=c1c2c([nH]c3ccccc13)CCCC2` the value was 0.8986; for `Br.Cc1ccc(C)c(-c2csc(Nc3ccc(C)c(C)c3)n2)c1`, 1.048; for `COc1cc(OC)cc(N2C(=O)N(Cc3ccc(C(C)(C)C)cc3)c3ccccc3S2(=O)=O)c1`, 0.9143. For `COc1ccc(Nc2cc(C)nc(NCc3ccccc3)n2)cc1`, the Ratio turned out to be 0.7294. As to `Br.CCn1c2c(c(=N)c3c1CCC3)CCCC2`, the Ratio was found to be 0.8374. `c1ccc(CNc2nc(Nc3ccccc3)nc3ccccc23)cc1`: the Ratio is 1. Take `CC(C)CCNCC(O)Cn1c2ccccc2c2ccccc21.Cl` (configuration not stated): the Ratio was determined as 0.9245. Regarding `CC(C)OCc1cc(CN2CCN(c3cccc(Cl)c3)CC2)c(O)c2ncccc12`, the Ratio is 1.015. In the case of `COc1ccc2c(=O)cc(C(Cl)(Cl)Cl)oc2c1`, the Ratio came out at 0.7571. For `N#Cc1nc(Cc2cccc3ccccc23)oc1N1CCN(C(c2ccccc2)c2ccccc2)CC1`, the Ratio was determined as 1.062. On to `Cc1cc(C)c2c(c1)OCN(Cc1ccccc1Cl)C2`, for which the Ratio turned out to be 0.8871. For `CCOc1ccc2c(c1)CN(Cc1ccc(Cl)cc1)CO2` the value was 0.8361; for `COCCNCC(O)Cn1c2ccc(Cl)cc2c2cc(Cl)ccc21` (configuration not stated), 0.88; for `CN(C)CCCNc1c2ccccc2nc2ccccc12`, 0.7564. The result for `CC(C)(C)c1ccc(C2CC3=Nc4ccccc4N(C(=O)c4ccccc4Cl)C(c4ccc(F)cc4)C3=C(O)C2)cc1` (configuration not stated) reads 1. Take `COc1ccc(-c2nc3cc(Cc4ccc5[nH]c(-c6ccc(OC)cc6)nc5c4)ccc3[nH]2)cc1`: the Ratio was determined as 1.389. The result for `Cc1ccc(Nc2nc(NCCO)c3ccccc3n2)cc1C` reads 0.8028; that for `CN(C)c1ccc(C(O)(c2ccc(N(C)C)cc2)c2ccc(N(C)C)cc2)cc1` [METHYLROSANILINE], 1.127; that for `O=C(Nc1ccc(Cl)c(Cl)c1)Nc1ccc(Cl)c(Cl)c1`, 1.022. As to `CCOC(=O)C1CCN(C(=O)CN2C(=O)c3ccccc3C2c2c[nH]c3ccccc23)CC1` (configuration not stated), the Ratio was determined as 0.6812. `CCOC(=O)C1=CN(C)C=C(C(=O)OCC)C1c1cc(Br)c(OCC)c(OC)c1`: the Ratio stood at 1.052. As for `CCCOCc1cc(CN2CCN(c3cccc(Cl)c3)CC2)c(O)c2ncccc12`, the Ratio worked out at 0.9844. `CCOc1cc2c(cc1OCC)C(c1cc(C)c(O)c(C)c1)NCC2.Cl` (configuration not stated): the Ratio was determined as 1.148.

Take `Cc1cc(Nc2ccc(Cl)cc2)n2nc(C(F)(F)F)nc2n1`: the Ratio is reported as 0.9718. Consider `OCCNc1nc(Nc2ccc(Cl)c(Cl)c2)nc2ccccc12`, for which the Ratio turned out to be 1.062. For `Cc1sc2ncnc(Sc3nc4ccccc4[nH]3)c2c1C` the value was 0.9273; for `O=C(Cc1ccccc1)NC(c1ccc(Cl)cc1)c1c(O)ccc2ccccc12` (configuration not stated), 0.873; for `FC(F)(F)c1cccc(Nc2nc(-c3ccccc3)nc3ncccc23)c1`, 0.7857. The result for `Cc1ccc(C)c(Cn2c(N3CCC(C(=O)NCc4cccs4)CC3)nc3ccccc32)c1` reads 1; that for `Cc1ccc(S(=O)(=O)c2c(COC(=O)c3cccc(C)c3)c(-c3ccccc3)nn2C)cc1`, 0.9265. For `COc1ccc(-c2nc(N3CCN(C(=O)C4CCCCC4)CC3)c3c4c(sc3n2)CCCC4)cc1` the value was 1.015; for `CCOc1ccc(CCNC(=O)c2cccs2)cc1OCC`, 1.073.

As for `O=C(c1ccccc1F)N(Cc1ccc(Cl)cc1)c1ccccn1`, the Ratio is 0.7857. Regarding `CCOc1ccc(Nc2ccnc3cc(Cl)ccc23)cc1`, the Ratio amounted to 0.8831. In the case of `CCOc1c(Cl)cc(CNCC(O)c2ccccc2)cc1OC` (configuration not stated), the Ratio turned out to be 0.8286. For the compound `Cc1ccc(CN2CCC(C(=O)Nc3ccc(-c4cc5ccccc5[nH]4)cc3)CC2)o1`, the Ratio was 0.8636.

With `OC(CNCC1CCCO1)Cn1c2ccc(Cl)cc2c2cc(Cl)ccc21` (configuration not stated), the Ratio is 0.8732. For `OC1=C2C(=Nc3ccccc3SC2c2ccccc2)c2ccccc21` (configuration not stated), the Ratio is 1.213. `c1ccc(Cn2c(N=Nc3c(Nc4ccccc4)ccc4ccccc34)nc3ccccc32)cc1`: the Ratio is on record as 0.863. As for `Cc1cc(NC(=O)C2c3ccccc3C(=O)N(CC(C)C)C2c2cccs2)no1` (configuration not stated), the Ratio is 0.791. For `Cc1ccc(-c2cc3c(nn2)-c2ccccc2C3=O)cc1` the value was 0.7253; for `COc1ccc(C(=O)NC(c2ccc(Cl)cc2Cl)c2cc(Cl)c3cccnc3c2O)cc1` (configuration not stated), 0.9814; for `CCOc1ccccc1CNC(=O)C1c2ccccc2C(=O)N(CC(C)C)C1c1cccs1` (configuration not stated), 1.143.

`Cc1ccc(CSCc2ccc(C(=O)NC3CC3)o2)cc1`: the Ratio is on record as 0.8621.

Values taken from ChEMBL document CHEMBL2448809, “UCSF DeRisi Lab MMV Box Apicoplast Screening”.
